Measurements: patent US20240216250A1, “COSMETIC PEPTIDES FOR IMPROVING SKIN REJUVENATION” (Lean Life Sciences, Inc., priority 2021, published 2024)
Entries after “also recorded” stand apart in the source; their conditions may differ.

Key:
[1] = test system: skin cells; experiment: Fructose, glucose and sucrose concentration in skin cells, same manner as Example 1-1; type: cell-based; conditions: Example 1-18, present tense
Experimental: (§1) Fructose concentration in 3T3-L1 cell lysates was measured using the Fructose Assay Kit (Abcam, Cambridge, UK). Six-well plates were seeded with 5×10^5 3T3-L1 cells/well one day before treating with 150 μM peptide. After 48 hours of treatment, the cells were harvested and fructose concentrations were assayed according to the manufacturer's instruction.
An additional group of skin cells are treated with one of KGGRAKD, KGG, GGR, GRA, RAK, AKD, DKA, KAR, ARG, RGG, GGK, and DKARGGK in the same manner as Example 1-1.
An additional group of skin cells were treated with […] (SEQ ID NO: 5) in the same manner as Example 1-1.
(§2) An additional group of skin cells are treated with one of […] (SEQ ID NO: 3) and […] (SEQ ID NO: 4) in the same manner as Example 1-1.

[2] = test system: skin cells; experiment: Collagen and fibronectin levels in skin cells upon peptide treatment; type: cell-based; conditions: Example 1-18, at a particular concentration, present tense
Experimental: as §2
The fructose, glucose, and sucrose concentrations in the groups where the above peptides are treated are not affected (data not shown), while the extra cellular matrix molecules, collagen and fibronectin, are determined.

[3] = test system: 3T3-L1 mature adipocytes; experiment: Lipid accumulation in 3T3-L1 adipocytes by Oil Red O staining, with cell count; type: cell-based, mouse; conditions: for Decrease in degree of lipid accumulation: 3T3-L1 mature adipocytes, quantitative Oil Red O analysis, Day 21 (H of FIG. 3); for Number and size of lipid droplets in adipocytes: Oil Red O, microscopy, peptides at 100 μM, three times per week for three weeks (Day 21), vs non-treated control; for Reduction of lipid accumulation: murine-based in vitro systems
Experimental: FIG. 3: Representative photomicrographs showing Oil Red O-stained mature adipocytes treated with peptides at 100 μM (Day 21). H: Quantitative analysis of the lipids accumulated in the adipocytes (Day 21). Control absorbance: 0.526 (Red line). I: Relative cell counts on day 21.
The effects of the minimal short peptides in blocking lipid accumulation in adipocytes were compared with their parent full-length peptide. After generating five different 3 amino acid fragments (KGG, GGR, GRA, RAK, and AKD) from the original ATS peptide (KGGRAKD (SEQ ID NO:1)), each peptide was administered to 3T3-L1 pre-adipocytes in five varying concentrations. Peptides were treated to the adipocytes three times per week for three weeks. Oil Red O staining was utilized to assess the lipid contents in mature adipocytes in culture. The morphological characteristics of 3T3-L1 mature adipocytes were observed by microscopy. […] Furthermore, the lipids were quantitatively analyzed.
The number of viable cells is counted prior to Oil Red O staining using Cell Counting Kit 8 (Dojindo). This cell viability study allows one to determine potential toxicities of the peptides and compensate for cell number variation-causing artifacts. Oil Red O is dissolved in isopropanol at […] to create a working solution. 12 ml of Oil Red O working solution is mixed with 8 ml dH2O and incubated for 10 minutes. This solution is then filtered using a 0.2 μm syringe filter. Adipocytes seeded on 96-well plates are washed with PBS twice. 10% formaldehyde is added for initial fixation and the plates are incubated for at least 30 minutes. The formaldehyde is removed and the cells are once again washed twice, this time with dH2O. 60% isopropanol is added to each well. The plates are incubated for 5 minutes. The isopropanol is removed from the wells and replaced with Oil Red O working solution. The plates are incubated for an additional 10 minutes. The Oil Red O solution is removed and washed four times with dH2O. Lastly, digital micrographs of the lipid droplets in adipocytes are taken using a light microscope. After the staining protocol, all plates are washed three times with 60% isopropanol. Each time, 5 minutes of gentle rocking was used. The Oil Red O is extracted with 100% isopropanol with gentle rocking for 5 minutes. 200 μl isopropanol per well is used as a background to measure absorbance at 492 nm using a BioTek microplate reader.

[4] = test system: DIO mice; experiment: Body weight gain in DIO mice: obesity progression model (OPM) and obesity model (OM); type: in vivo; conditions: for Prevention of body weight gain: pre-obese OPM mice on HFD; for Anti-obesity efficacy (body weight): oral administration
Experimental: Prior to oral administration, peptides were administered to DIO mice via intraperitoneal (IP) and subcutaneous (SC) injections.
In the first phase, peptides were tested on pre-obese mice that were being fed high fat diet (HFD) to induce obesity (obesity progression model, OPM). In the second phase, these peptides were given to mice that had already developed obesity (obesity model, OM). […] As the activity of these three peptides varies depending on the injection route and the disease status, all three peptides, GGR, RAK, and AKD, were tested by oral administration.
Prior to oral administration, GGR, RAK, AKD, full-length ATS, and scrambled RKG peptides were administered to OPM mice via IP and SC injections to further screen an ideal peptide composition. PBS was included as a vehicle group. GGR, RAK, and AKD peptides were discovered to impede body weight gain in OPM mice. GGR and RAK were effective when given IP injections and AKD was effective by SC injections (FIGS. 4 and 5).
The second phase signified the post-obesity stage, where the same methods from phase 1 were used on OM mice.
(§3) GGR, RAK, and AKD peptides were tested in OPM and OM mice by oral administration. […] In obesity progression, adipocytes increase in both number and size due to escalating lipid accumulation (Parlee, S. D., et al., Methods Enzymol 537, 93-122, (2014)). Using the methods described above, abdominal fat pads of GGR, RAK, AKD, or PBS-treated DIO mice were histologically analyzed. Epididymal fat tissues were harvested from two mice per experimental group. All samples were fixed in 4% paraformaldehyde, H&E-stained, and imaged. At a 10× magnification, adipocyte cell counting was performed on the digital slide images using an automated adipocyte counting macro with the ImageJ software. A default thresholding method was used and [cell] sizing boundaries of 40-40,000 were set. Limitations of the segmentation tool led to some erroneous selections or regions of interest (ROI), which were manually corrected by adding or erasing lines. The number of cells per representative field were then determined using the ROI manager in ImageJ. Two or three high power fields (hpf) per tissue and two tissue samples per group were analyzed to reduce variability. Average cell count for each group was calculated accordingly. Areas of all adipocytes of interest were measured using the ROI measurement tool (ImageJ) and average area per cell was calculated accordingly.

[5] = test system: 3T3-L1 cells; experiment: Fructose, glucose and sucrose concentration in adipocytes (3T3-L1 cell lysates, Fructose Assay Kit); type: cell-based, mouse
Experimental: as §1
In order to confirm the effect of peptides on reducing the fructose level in adipocytes, three groups of adipocytes were prepared. Among the three groups, one group was treated with GGR, and another group was treated with RAK. The remaining group was not treated with any peptides and used as a control group. […] Fructose—an intermediate metabolite of glucose—was measured to further probe glucose metabolism. 3T3-L1 cells treated with either peptide had lower fructose concentrations than untreated cells (FIG. 1).
An additional group of adipocytes are treated with one of KGGRAKD, KGG, GGR, GRA, RAK, AKD, DKA, KAR, ARG, RGG, GGK, and DKARGGK in the same manner as Example 1-1.

[6] = test system: abdominal fat pads of DIO mice; experiment: Histological analysis of fat pads of DIO mice (adipocyte number and size); type: in vivo; conditions: epididymal fat
Experimental: FIG. 10. Histological analysis fat pads. An automated system detected and counted adipocytes (yellow line). Adipocyte number and size: average of 3 hpf images from 2 mice (total 6 images/group).
as §3
The primary function of adipocytes is to store energy in the form of lipids. The volume of lipid stored in an adipocyte cell increases as the third power of the diameter. Because mature adipocytes are composed of large lipid droplets that are surrounded by very thin cytoplasmic layers, the increase in volume of an adipocyte cell likely indicates increased lipid storage. Thus, smaller adipocyte size/area translates to reduced lipid accumulation.

[7] = Examples 1-2 to 1-11, same manner as Example 1-1
[8] = post-obese OM mice, IP injection
[9] = post-obese OM mice, SC injection
[10] = 3T3-L1 cells, 150 μM peptide, 48 hours, vs untreated control (FIG. 1)

In the case of ACSSSPSKHCGGGSESPLKRQG, the “Fructose concentration in skin cells” value [1] is reported as “not affected”, the “Glucose concentration in skin cells” value [1] is reported as “not affected” and the “Sucrose concentration in skin cells” value [1] is reported as “not affected”. For the same substance, the “Collagen in skin cells vs control group” value [2] was “significantly higher than the control group” and the “Fibronectin in skin cells vs control group” value [2] was “significantly higher than the control group”.
For ACTGSTQHQGGGSEHGAMEI, the “Fructose concentration in skin cells” value [1] was “not affected”, the “Glucose concentration in skin cells” value [1] was “not affected” and the “Sucrose concentration in skin cells” value [1] was “not affected”. For the same substance, the “Collagen in skin cells vs control group” value [2] was “significantly higher than the control group” and the “Fibronectin in skin cells vs control group” value [2] was “significantly higher than the control group”.
In the case of AKD, the “Decrease in degree of lipid accumulation” value [3] is reported as “approximately 20%”, the “Number and size of lipid droplets in adipocytes” value (“Number and size” below) [3] is reported as “smaller than those in the non-treated control” and the “Reduction of lipid accumulation” value [3] is reported as “effective in reducing lipid accumulation”. For the same substance, the “Prevention of body weight gain” value ([4]; SC injection) was “best working peptide; also recorded: effective”, the “Anti-obesity efficacy (body weight)” value ([4]; pre-obese OPM mice) was “efficacious over GGR” and the “Fructose concentration in adipocytes vs control group” value [5, 7] was “significantly lower than the control group”.
With ARG the “Fructose concentration in adipocytes vs control group” value [5, 7] was “significantly lower than the control group”.
DKA was tested, and the “Fructose concentration in adipocytes vs control group” value [5, 7] was “significantly lower than the control group”.
For DKARGGK, the “Fructose concentration in adipocytes vs control group” value [5, 7] was “significantly lower than the control group”.
In the case of GGK, the “Fructose concentration in adipocytes vs control group” value [5, 7] is reported as “significantly lower than the control group”.
In the case of GGR, the “Decrease in degree of lipid accumulation” value [3] is reported as “approximately 20%”, the “Number and size” value [3] is reported as “smaller than those in the non-treated control” and the “Reduction of lipid accumulation” value [3] is reported as “effective in reducing lipid accumulation”. The “Prevention of body weight gain / body weight change” value [4, 8] was “positive effects on prevention of body weight gain”, the “Prevention of body weight gain / body weight change” value [4, 9] was “effective” and the “Prevention of body weight gain” value ([4]; IP injection) was “positive effects on prevention of body weight gain; also recorded: effective”. The “Fructose concentration in adipocytes vs control group” value [5, 10] was “significantly lower than the control group”.
In the case of GRA, the “Number and size” value [3] is reported as “moderate differences in the morphology of lipid droplets” and the “Fructose concentration in adipocytes vs control group” value [5, 7] is reported as “significantly lower than the control group”.
KAR was tested, and the “Fructose concentration in adipocytes vs control group” value [5, 7] was “significantly lower than the control group”.
For KGG, the “Number and size” value [3] was “moderate differences in the morphology of lipid droplets” and the “Fructose concentration in adipocytes vs control group” value [5, 7] was “significantly lower than the control group”.
RAK was tested, and the “Decrease in degree of lipid accumulation” value [3] was “approximately 20%”, the “Number and size” value [3] was “smaller than those in the non-treated control” and the “Reduction of lipid accumulation” value [3] was “effective in reducing lipid accumulation”. For the same substance, the “Prevention of body weight gain / body weight change” value [4, 8] was “positive effects on prevention of body weight gain”, the “Prevention of body weight gain / body weight change” value [4, 9] was “effective” and the “Anti-obesity efficacy (body weight)” value ([4]; post-obese OM mice) was “has anti-obesity efficacy”. The “Prevention of body weight gain” value ([4]; IP injection) was “positive effects on prevention of body weight gain; also recorded: effective”, the “Anti-obesity efficacy (body weight)” value ([4]; pre-obese OPM mice) was “efficacious over GGR; also recorded: has anti-obesity efficacy” and the “Average cell count per field” value ([6]; adipocytes, 10× magnification, ImageJ, rank among all experimental groups (FIG. 10)) was “highest”. For the same substance, the “Activity by histological analysis of the fat pads” value ([6]; H&E, DIO mice) was “more active than GGR; also recorded: highest efficacy”, the “Average adipocyte area per cell” value ([6]; ImageJ ROI, rank among all experimental groups (FIG. 10)) was “lowest” and the “Fructose concentration in adipocytes vs control group” value [5, 10] was “significantly lower than the control group”.
In the case of RGG, the “Fructose concentration in adipocytes vs control group” value [5, 7] is reported as “significantly lower than the control group”.
For RKG [reference compound], the Anti-obesity effects ([4]; IP and SC studies, regardless of injection route or schedule) was “no anti-obesity effects”, the “Prevention of body weight gain / body weight change” value [4, 8] was “did not show meaningful efficacy over the vehicle group” and the “Prevention of body weight gain” value ([4]; IP injection) was “did not show meaningful efficacy over the vehicle group; also recorded: no anti-obese effects”. For the same substance, the “Prevention of body weight gain” value ([4]; SC injection) was “no anti-obese effects”.
